ChEMBL document CHEMBL1125667, “Receptor-based design of novel dihydrofolate reductase inhibitors: benzimidazole and indole derivatives” (J Med Chem, 1991)

How the values were obtained:
[1] = target: T1, Dihydrofolate reductase (Escherichia coli) (UniProt P0ABQ4); experiment: (§1) Inhibitory activity against Dihydrofolate reductase obtained from Escherichia coli
T1 sequence (whole entry): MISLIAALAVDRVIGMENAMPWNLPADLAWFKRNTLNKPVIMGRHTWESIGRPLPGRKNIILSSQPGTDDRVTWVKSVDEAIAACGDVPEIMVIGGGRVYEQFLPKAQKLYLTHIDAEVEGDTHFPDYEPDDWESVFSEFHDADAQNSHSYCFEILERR

[2] = target: T2, Dihydrofolate reductase (Rattus norvegicus) (UniProt Q920D2); experiment: Inhibitory activity against Dihydrofolate reductase obtained from rat liver
T2 sequence (whole entry): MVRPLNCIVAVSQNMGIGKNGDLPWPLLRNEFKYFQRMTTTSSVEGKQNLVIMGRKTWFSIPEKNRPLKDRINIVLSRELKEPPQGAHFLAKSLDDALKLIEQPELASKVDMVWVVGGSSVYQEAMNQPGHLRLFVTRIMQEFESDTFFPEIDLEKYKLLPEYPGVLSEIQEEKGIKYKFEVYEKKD

Dihydrofolate reductase = target: T3, Dihydrofolate reductase (Escherichia coli, UniProt P0ABQ4); experiment: as §1; conditions: read-out: I50
T3 sequence (P0ABQ4 whole entry): T1 sequence (whole entry)

`Nc1nc2c(N)c3c(cc2[nH]1)CCC3` was tested. Which I13 [1] did it give?
The I13 was 360 µM.

And the I7 [2]?
The I7 was 360 µM.

Which results are given for `Nc1nc2c(N)cc(C(=O)c3ccccc3)cc2[nH]1`?
I14 [1]: 100 µM; I16 [2]: 100 µM

`Nc1cc2c(N)cc(Cc3ccccc3)cc2[nH]1` was tested. Which IC50 (Dihydrofolate reductase) did it give?
Its IC50 is 100 µM.

What about the I28 [2] of the same molecule?
Its I28 is 500 µM.

`Nc1nc2c(N)c3c(cc2[nH]1)C1(CC3)SCCS1` was tested. Which I31 [1] did it give?
Its I31 is 140 µM.

And the I14 [2]?
Its I14 is 14 µM.

What does the source list for `Nc1nc2c(N)cc(Cc3ccccc3)cc2[nH]1`?
I42 [1]: 300 µM; I5 [2]: 300 µM
